Experimental data: ChEMBL document CHEMBL2407045, “Discovery and gram-scale synthesis of BMS-593214, a potent, selective FVIIa inhibitor” (Bioorg Med Chem Lett, 2013)

Experiments:
[1] = target: T1, Coagulation factor VII (Homo sapiens, UniProt P08709); experiment: Inhibition of recombinant human coagulation factor 7A
T1 sequence (P08709 whole entry): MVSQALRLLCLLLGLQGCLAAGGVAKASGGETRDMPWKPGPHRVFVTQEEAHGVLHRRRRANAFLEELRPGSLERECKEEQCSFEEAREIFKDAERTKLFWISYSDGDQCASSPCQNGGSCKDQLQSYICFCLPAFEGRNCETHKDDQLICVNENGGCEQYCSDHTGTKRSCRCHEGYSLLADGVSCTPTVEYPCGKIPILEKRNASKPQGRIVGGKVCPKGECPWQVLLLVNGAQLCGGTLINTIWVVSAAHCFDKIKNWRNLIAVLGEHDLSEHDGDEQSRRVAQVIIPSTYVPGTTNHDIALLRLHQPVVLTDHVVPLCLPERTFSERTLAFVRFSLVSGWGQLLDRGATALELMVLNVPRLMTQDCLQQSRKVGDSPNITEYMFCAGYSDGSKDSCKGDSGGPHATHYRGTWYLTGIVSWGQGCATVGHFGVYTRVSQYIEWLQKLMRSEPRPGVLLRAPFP

[2] = target: Prothrombin (Homo sapiens, UniProt P00734); experiment: Inhibition of purified human thrombin
[3] = target: Coagulation factor X (Homo sapiens, UniProt P00742); experiment: Inhibition of purified human coagulation factor 10a
Coagulation factor X, sequence (P00742 41-179 limits assumed): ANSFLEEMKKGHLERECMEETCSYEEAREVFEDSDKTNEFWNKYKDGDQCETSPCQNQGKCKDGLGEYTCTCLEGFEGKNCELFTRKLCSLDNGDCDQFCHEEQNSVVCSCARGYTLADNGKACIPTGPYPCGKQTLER
Coagulation factor X, sequence (P00742 235-488 limits assumed): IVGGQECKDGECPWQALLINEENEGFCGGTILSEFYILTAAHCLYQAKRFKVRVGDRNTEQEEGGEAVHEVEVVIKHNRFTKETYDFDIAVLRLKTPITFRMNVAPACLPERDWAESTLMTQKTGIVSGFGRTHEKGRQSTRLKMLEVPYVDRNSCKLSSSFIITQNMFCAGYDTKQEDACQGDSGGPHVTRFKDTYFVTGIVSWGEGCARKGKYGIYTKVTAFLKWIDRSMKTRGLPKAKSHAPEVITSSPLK

[4] = target: Trypsin (Homo sapiens, UniProt P07477+P07478+P35030); experiment: Inhibition of purified human trypsin; assay type: protein assay
[5] = species on record: Oryctolagus cuniculus; experiment: Toxicity in rabbit assessed as prolongation of cuticle bleeding time; assay type: organism-based; details: in vivo
[6] = species on record: Oryctolagus cuniculus; experiment: Antithrombotic activity in rabbit electric current arterial thrombosis model; assay type: functional, organism-based
[7] = Anticoagulant activity in plasma (unknown origin) assessed as concentration required to double prothrombin time; assay type: functional

Structure (SMILES) | Ki [1] | Ki [2] | Ki [3] | Ki [4] | EC50 [6] | Activity [5] | 2PT [7]
COc1cc([C@@H]2Nc3ccc(C(=N)N)cc3[C@H]3c4ccccc4C[C@H]32)c(-c2ccc(C(=O)O)cc2)cc1O |  |  |  |  | 570 nM | Non-toxic | 
COc1cc([C@H]2C[C@H](c3ccccc3)c3cc(C(=N)N)ccc3N2)ccc1O | 1800 nM |  |  |  |  |  | 
C[C@]1(c2ccccc2)C[C@H](c2ccc(O)cc2)Nc2ccc(C(=N)N)cc21 | 8800 nM |  |  |  |  |  | 

Continued by falling Ki [1], values first:

Ki [1] | Ki [2] | Ki [3] | Ki [4] | EC50 [6] | Structure (SMILES) | Activity [5] | 2PT [7]
160 nM | 300 nM | > 500 nM | 300 nM |  | COc1cc([C@@H]2Nc3ccc(C(=N)N)cc3[C@H]3c4ccccc4C[C@H]32)ccc1O (racemic) |  | 
8.1 nM | 330 nM | 1500 nM | 6900 nM |  | COc1cc([C@@H]2Nc3ccc(C(=N)N)cc3[C@H]3c4ccccc4C[C@H]32)c(-c2cccc(C(=O)O)c2)cc1O (racemic) |  | 
1.9 nM | 1800 nM | 1300 nM | > 8000 nM |  | COc1cc([C@@H]2Nc3ccc(C(=N)N)cc3[C@H]3c4ccccc4C[C@H]32)c(-c2ccc(C(=O)O)cc2)cc1O (racemic) |  | 16 µM
0.62 nM | 35 nM | 16 nM | 7.5 nM |  | COc1cc([C@@H]2Nc3ccc(C(=N)N)cc3[C@H]3c4ccccc4C[C@H]32)c(-c2ccccc2C(=O)O)cc1O (racemic) |  | 
